Results on two compounds are retold here after article PMC3932137, “Simple, sensitive and rapid determination of linifanib (ABT-869), a novel tyrosine kinase inhibitor in rat plasma by UHPLC-MS/MS” (Chemistry Central Journal, 2014).

Data set [1] is described as follows: stability of stock solutions and working solutions. The class given is physicochemical. The settings on record: for time stock solutions and working standard stable at refrigerator temperature: refrigerator temperature (below 10°C). How it is done: (§1) The stability of linifanib in rat plasma during the sample storage and processing conditions was assessed by analyzing six replicates of LQC and HQC. Short-term stability was assessed after keeping the plasma samples at ambient temperature for ∼ 6 h, the freeze–thaw stability was determined after three cycles of freeze-thaw. Post-preparative stability was determined by storing the reconstituted QC samples for ∼ 48 h under autosampler conditions (maintained at 10°C) before being analyzed. Long-term stability was assessed after storage of the test samples at around −80°C for 30 days. The working solutions and stock solutions of linifanib and the IS were also evaluated for stability at room temperature for 12 h and at refrigerator temperature (below 10°C) for 15 days. The samples were considered stable in plasma at each concentration if the deviation from the mean calculated concentration of quality control samples were within ±15%.

The nature of data set [2]: pilot pharmacokinetic study of linifanib in rats (oral). The class given is in vivo. To be noted: male, Wistar albino, plasma, rat, 5 mg/kg oral, single dose. The procedure: After an overnight fasting, all rats received linifanib (5 mg/kg, oral, dissolved in HPMC). Blood samples (approximately 0.5 mL) were collected from the retro-orbital plexus into heparinized microfuge tubes at different time interval after linifanib administration and plasma samples were harvested by centrifuging the blood at 4500 rpm for 8 min and stored frozen at −80 ± 10°C until analysis. The pharmacokinetic parameters: Cmax, Tmax, AUC, t½ and Kel were calculated using WinNonlin software.

Data set [3] is described as follows: stability of linifanib in rat plasma during sample storage and processing. The class given is in vitro ADME. The settings on record: for Accuracy (%) / Mean ± SD concentration found: n = 6. How it is done: as §1
On the set-up of data set [4]: method as in PMID 22382879, PMID 19720910. To be noted: phase I study, cited from earlier work.
Where [5] appears, read: rat plasma, 30 days at −80°C, nominal 1.28 ng/mL.
[6] abbreviates: rat plasma, 30 days at −80°C, nominal 425 ng/mL.
Setting [7] is: rat plasma, bench top (6 hrs), nominal 1.28 ng/mL.
Setting [8] is: rat plasma, bench top (6 hrs), nominal 425 ng/mL.
[9] abbreviates: rat plasma, freeze thaw (3 cycle), nominal 1.28 ng/mL.
[10] abbreviates: rat plasma, freeze thaw (3 cycle), nominal 425 ng/mL.
Where [11] appears, read: reconstituted QC samples in injector (48 hrs, 10°C), nominal 1.28 ng/mL.
The mark [12] stands for this setting: reconstituted QC samples in injector (48 hrs, 10°C), nominal 425 ng/mL.

Take `CCN(CC)CCNC(=O)c1c(C)[nH]c(/C=C2\C(=O)Nc3ccc(F)cc32)c1C` [IS, sunitinib]: in data set [1], the “time stock solutions and working standard stable at refrigerator temperature” value worked out at 15 days; the “time stock solutions and working standard stable at room temperature” value was 12 h.
In the case of `Cc1ccc(F)c(NC(=O)Nc2ccc(-c3cccc4[nH]nc(N)c34)cc2)c1` [linifanib, N-(4-(3-amino-1H-indazol-4-yl)phenyl)-N'-(2-fluoro-5-methylphenyl)urea], the k el in data set [2] is 2.78e-05 s⁻¹. Further, the half-life in data set [2] (read-out: average t½ (converted)) was 6.67 h. Moreover, the AUC(0-t) in data set [2] (read-out: mean AUC0-8h) came out at 232 ng·h/mL. The Cmax in data set [2] (read-out: mean peak plasma concentration (Cmax)) was 55.1 ng/mL. In addition, the Tmax in data set [2] (read-out: time to peak plasma concentration (Tmax)) was determined as 2.5 h. For the same compound, the “time stable in autosampler” value in data set [3] (autosampler maintained at 10°C) amounted to 48 h. The “Accuracy (%)” value amounted to 98.3% in data set [3] (setting [5]); 90.5% in data set [3] (setting [6]); 105.0% in data set [3] (setting [7]); 92.7% in data set [3] (setting [8]); 101.1% in data set [3] (setting [9]); 90.7% in data set [3] (setting [10]). Also, the “Accuracy (%)” value in data set [3] (setting [11]) came to 110.6%; in data set [3] (setting [12]) it was 107.2%. For the same compound, the “Mean ± SD concentration found” value was 1.26 ± 0.10 ng/mL in data set [3] (setting [5]); 384 ± 20.2 ng/mL in data set [3] (setting [6]); 1.35 ± 0.06 ng/mL in data set [3] (setting [7]); 393 ± 34.8 ng/mL in data set [3] (setting [8]); 1.30 ± 0.10 ng/mL in data set [3] (setting [9]); 385 ± 14.3 ng/mL in data set [3] (setting [10]). Moreover, the “Mean ± SD concentration found” value in data set [3] (setting [11]) is on record as 1.42 ± 0.09 ng/mL; in data set [3] (setting [12]), 455 ± 19.8 ng/mL. Besides, the “time stable in rat plasma at around −80°C” value in data set [3] (spiked into rat plasma, around −80°C) is reported as “up to 30 days”. In data set [3] (spiked into rat plasma, room temperature), the “time stable in rat plasma at room temperature” value is listed as “at least 6.0 h”. For the same compound, the “freeze-thaw stability in rat plasma” value in data set [3] (spiked into rat plasma, three freeze-thaw cycle) was “stable”. Moreover, the “time stock solutions and working standard stable at refrigerator temperature” value in data set [1] was 15 days. Also, in data set [1], the “time stock solutions and working standard stable at room temperature” value stood at 12 h. In addition, in data set [4] (across all dose levels), the “time to peak plasma concentration” value was “approx. 2 h”. Besides, the “dose recovered as unchanged in urine” value in data set [4] is 15%. Besides, in data set [4], the oral clearance is listed as 2.7 L/h. Moreover, in data set [4], the “pharmacokinetics (dose and time dependence)” value is “dose proportional and time invariant”.
